As usually defined, the AC50 is the midpoint of the concentration-response curve, whichever way the signal moves. A word on the EC50: it is the midpoint of the concentration-response curve.

Assay [1] concerns the target T1, Fatty acid synthase (Homo sapiens, UniProt P49327). The assay can be described thus: FAS thioesterase domain inhibitors, dose response, biochemical, endpoint fluorescence intensity, uHTS hits (AID 624327).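 Further: fluorescence from hydrolysis of an O-methyl fluorescein acyl ester substrate by the enzyme.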 The format is functional.
Assay [2] concerns the target T1, Fatty acid synthase. The assay can be described thus: FAS thioesterase domain inhibitors, dose response, biochemical, kinetic fluorescence intensity (AID 624326).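 Further: rate of fluorescence rise from hydrolysis of a fluorogenic O-methyl fluorescein ester substrate.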 The format is functional.
Assay [3] addresses T2, Polyadenylate-binding protein 1 (Homo sapiens, UniProt P11940). The assay is described as follows: PABP1 MLLE–PAM2 binding inhibitor potency, dose response, biochemical, fluorescence polarization, FITC-PAM2 peptide (AID 602259). The class given is functional. As to conditions: read-out: IC50_Mean. On the technique in general: Fluorescence polarisation rises when a labelled molecule tumbles more slowly, as on binding a larger partner.

Assay [4] is described as follows: Luminescence Cell-Based Dose Retest to Confirm Inhibitors of Cancer Stem Cells. [Related pubchem assays (depositor defined):AID2717, AID2721]. The format is functional. As to conditions: Homo sapiens.
Assay [5] deals with T2, Polyadenylate-binding protein 1. The assay is described as follows: PABP1 MLLE–PAM2 interaction inhibitors, dose response, miRNA deadenylation inhibitor project, biochemical, fluorescence polarization, Cy5-PAM2 peptide, secondary (AID 602260). The class given is functional. As to conditions: read-out: IC50_Mean.
Another assay concerns the target T3, Protein RecA (Mycobacterium tuberculosis, UniProt P9WHJ3).
T3 sequence (P9WHJ3 whole entry): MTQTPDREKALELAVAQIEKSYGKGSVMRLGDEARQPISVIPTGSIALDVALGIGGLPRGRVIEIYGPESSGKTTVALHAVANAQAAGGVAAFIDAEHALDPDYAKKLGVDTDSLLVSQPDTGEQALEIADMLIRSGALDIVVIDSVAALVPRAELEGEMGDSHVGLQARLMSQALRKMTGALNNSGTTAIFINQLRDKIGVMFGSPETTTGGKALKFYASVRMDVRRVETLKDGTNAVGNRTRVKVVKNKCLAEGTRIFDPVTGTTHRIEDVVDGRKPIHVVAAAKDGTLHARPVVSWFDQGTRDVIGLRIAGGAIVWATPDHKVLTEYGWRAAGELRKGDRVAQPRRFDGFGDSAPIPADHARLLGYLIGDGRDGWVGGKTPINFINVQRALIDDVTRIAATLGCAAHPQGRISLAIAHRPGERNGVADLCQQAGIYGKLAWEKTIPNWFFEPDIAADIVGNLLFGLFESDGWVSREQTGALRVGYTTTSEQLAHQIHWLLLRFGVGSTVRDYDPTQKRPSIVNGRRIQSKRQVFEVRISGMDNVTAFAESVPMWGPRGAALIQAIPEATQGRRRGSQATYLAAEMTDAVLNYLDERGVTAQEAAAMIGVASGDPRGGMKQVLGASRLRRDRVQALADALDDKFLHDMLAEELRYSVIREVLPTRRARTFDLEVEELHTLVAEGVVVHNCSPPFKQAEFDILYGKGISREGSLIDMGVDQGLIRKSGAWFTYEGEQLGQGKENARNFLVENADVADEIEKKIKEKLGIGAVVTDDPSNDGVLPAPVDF
The assay can be described thus: Fluorescence Cell-Free Homogeneous Dose Retest to Identify Inhibitors of RecA-Intein Splicing Activity. [Related pubchem assays (depositor defined):AID2097, AID2223, AID489010, AID492950]. The class given is functional.

In assay [6] the target is T4, Replicative DNA helicase DnaB (Mycobacterium tuberculosis, UniProt P9WMR3).
T4 sequence (P9WMR3 whole entry): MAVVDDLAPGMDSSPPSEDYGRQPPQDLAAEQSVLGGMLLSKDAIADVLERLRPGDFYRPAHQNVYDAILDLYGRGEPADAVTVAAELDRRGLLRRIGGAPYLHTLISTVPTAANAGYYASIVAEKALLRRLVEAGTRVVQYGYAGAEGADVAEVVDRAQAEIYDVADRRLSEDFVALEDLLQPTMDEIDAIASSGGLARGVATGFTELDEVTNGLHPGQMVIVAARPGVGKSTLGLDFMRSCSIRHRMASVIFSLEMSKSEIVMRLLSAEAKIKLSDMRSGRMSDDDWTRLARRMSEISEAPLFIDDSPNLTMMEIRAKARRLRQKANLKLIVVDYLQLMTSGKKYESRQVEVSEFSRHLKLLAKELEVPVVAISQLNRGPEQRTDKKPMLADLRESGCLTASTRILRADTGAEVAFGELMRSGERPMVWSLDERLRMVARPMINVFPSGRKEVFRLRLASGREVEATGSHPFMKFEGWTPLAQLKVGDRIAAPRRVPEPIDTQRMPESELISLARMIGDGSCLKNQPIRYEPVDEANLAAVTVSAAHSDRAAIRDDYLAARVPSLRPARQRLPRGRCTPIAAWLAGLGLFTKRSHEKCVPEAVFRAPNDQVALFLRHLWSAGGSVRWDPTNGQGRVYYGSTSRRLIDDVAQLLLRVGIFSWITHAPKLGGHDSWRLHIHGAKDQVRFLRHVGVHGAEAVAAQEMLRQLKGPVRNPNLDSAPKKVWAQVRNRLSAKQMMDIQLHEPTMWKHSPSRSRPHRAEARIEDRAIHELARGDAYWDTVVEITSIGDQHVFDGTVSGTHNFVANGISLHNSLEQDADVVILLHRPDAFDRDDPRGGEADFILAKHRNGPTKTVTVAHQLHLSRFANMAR
The assay can be described thus: DnaB intein splicing inhibitors, dose response, biochemical, cell-free fluorescence (AID 449749). The class given is functional.

Assay [7] deals with FAD-linked sulfhydryl oxidase ALR (Homo sapiens, UniProt P55789). The assay can be described thus: inhibitors of human ALR sulfhydryl oxidase, dose response, biochemical, H2O2 detection, luminescence, cherry-pick (AID 493248).
The target of another assay is Genome polyprotein (dengue virus type 2, UniProt P29990). The assay is described as follows: Dengue-2 NS5 methyltransferase inhibitors, primary screen, biochemical, confirmation dose response (AID 588689). The format is functional.
The target in the next assay is T5, Cytochrome P450 1A2 (Homo sapiens, UniProt P05177).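 Further: PubChem cytochrome P450 panel assay, CYP1A2 panel member.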
T5 sequence (P05177 whole entry): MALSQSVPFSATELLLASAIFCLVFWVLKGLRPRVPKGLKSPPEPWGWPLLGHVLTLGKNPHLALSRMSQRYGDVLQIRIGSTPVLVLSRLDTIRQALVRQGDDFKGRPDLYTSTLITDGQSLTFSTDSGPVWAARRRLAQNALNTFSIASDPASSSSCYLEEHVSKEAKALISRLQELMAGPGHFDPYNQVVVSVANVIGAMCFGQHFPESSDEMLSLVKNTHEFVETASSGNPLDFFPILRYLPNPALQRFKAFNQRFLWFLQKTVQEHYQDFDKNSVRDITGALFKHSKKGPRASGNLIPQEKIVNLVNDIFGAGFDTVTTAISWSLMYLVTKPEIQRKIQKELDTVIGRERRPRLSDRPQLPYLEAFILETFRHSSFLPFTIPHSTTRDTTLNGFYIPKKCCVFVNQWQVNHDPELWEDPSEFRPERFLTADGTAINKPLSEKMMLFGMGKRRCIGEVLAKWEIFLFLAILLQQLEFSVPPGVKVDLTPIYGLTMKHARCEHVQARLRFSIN

Calls of active or inactive are those of the source.

T1 sequence (P49327 whole entry, the tested form may be a part): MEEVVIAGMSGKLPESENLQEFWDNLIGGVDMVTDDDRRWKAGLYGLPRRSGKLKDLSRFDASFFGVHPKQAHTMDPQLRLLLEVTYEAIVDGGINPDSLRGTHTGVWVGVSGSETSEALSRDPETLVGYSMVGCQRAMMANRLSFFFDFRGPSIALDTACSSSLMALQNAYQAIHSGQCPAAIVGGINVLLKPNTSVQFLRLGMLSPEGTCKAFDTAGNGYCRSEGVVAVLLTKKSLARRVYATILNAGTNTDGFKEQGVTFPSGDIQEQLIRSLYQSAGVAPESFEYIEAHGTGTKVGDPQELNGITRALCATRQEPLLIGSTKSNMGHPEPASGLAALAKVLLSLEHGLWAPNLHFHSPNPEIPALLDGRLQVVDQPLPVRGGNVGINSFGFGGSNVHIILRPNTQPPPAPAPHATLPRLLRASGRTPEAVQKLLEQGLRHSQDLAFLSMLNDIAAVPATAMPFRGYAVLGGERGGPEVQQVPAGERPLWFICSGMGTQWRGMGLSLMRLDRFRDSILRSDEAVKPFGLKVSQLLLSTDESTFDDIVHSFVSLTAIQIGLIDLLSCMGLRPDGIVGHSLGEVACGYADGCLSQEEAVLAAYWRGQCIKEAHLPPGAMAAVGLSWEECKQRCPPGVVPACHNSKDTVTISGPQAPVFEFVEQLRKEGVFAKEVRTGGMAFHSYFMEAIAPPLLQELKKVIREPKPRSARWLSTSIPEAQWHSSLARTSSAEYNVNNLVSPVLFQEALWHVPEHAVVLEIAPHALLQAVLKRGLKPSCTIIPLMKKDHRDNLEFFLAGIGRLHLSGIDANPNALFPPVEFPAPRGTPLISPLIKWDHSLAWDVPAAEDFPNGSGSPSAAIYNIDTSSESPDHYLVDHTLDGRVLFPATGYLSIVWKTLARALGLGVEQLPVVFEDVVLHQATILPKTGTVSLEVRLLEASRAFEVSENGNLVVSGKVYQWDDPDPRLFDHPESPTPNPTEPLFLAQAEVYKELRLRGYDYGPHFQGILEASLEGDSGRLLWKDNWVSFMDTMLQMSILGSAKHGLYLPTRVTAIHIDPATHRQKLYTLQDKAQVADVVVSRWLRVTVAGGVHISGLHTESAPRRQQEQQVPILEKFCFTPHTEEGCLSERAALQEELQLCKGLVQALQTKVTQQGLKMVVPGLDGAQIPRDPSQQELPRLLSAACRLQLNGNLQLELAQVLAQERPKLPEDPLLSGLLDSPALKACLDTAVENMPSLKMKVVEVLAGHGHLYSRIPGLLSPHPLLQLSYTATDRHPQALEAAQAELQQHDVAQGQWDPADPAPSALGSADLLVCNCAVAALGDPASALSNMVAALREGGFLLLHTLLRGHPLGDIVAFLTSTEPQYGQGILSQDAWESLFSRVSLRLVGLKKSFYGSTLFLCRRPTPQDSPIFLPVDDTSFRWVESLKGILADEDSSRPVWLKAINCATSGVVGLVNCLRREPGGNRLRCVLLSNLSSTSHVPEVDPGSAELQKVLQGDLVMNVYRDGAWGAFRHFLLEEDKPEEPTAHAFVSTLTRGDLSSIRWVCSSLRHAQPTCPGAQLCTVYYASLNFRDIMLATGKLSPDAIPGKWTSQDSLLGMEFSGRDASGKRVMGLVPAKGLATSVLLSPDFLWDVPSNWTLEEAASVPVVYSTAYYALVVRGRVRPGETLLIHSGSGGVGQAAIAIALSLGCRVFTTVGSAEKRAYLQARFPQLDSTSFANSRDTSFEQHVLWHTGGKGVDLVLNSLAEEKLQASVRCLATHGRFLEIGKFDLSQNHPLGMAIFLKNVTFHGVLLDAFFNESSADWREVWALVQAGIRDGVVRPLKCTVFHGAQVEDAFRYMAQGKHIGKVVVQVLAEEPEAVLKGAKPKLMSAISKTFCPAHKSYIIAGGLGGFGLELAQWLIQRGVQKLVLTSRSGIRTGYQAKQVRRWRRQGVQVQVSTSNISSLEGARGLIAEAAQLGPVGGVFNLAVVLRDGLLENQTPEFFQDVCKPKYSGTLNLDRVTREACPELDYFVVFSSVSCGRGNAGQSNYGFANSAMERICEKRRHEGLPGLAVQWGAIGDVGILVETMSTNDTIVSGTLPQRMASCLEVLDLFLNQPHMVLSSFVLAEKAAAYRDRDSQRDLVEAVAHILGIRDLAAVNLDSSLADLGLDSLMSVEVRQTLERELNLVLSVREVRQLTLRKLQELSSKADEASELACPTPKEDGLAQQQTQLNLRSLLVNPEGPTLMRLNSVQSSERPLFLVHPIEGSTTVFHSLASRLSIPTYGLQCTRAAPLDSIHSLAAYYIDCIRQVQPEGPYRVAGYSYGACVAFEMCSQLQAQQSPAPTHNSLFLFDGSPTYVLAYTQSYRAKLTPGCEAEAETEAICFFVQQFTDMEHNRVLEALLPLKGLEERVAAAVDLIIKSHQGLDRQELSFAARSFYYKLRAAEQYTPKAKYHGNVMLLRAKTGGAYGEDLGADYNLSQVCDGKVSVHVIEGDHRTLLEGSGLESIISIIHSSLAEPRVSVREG
T2 sequence (P11940 whole entry): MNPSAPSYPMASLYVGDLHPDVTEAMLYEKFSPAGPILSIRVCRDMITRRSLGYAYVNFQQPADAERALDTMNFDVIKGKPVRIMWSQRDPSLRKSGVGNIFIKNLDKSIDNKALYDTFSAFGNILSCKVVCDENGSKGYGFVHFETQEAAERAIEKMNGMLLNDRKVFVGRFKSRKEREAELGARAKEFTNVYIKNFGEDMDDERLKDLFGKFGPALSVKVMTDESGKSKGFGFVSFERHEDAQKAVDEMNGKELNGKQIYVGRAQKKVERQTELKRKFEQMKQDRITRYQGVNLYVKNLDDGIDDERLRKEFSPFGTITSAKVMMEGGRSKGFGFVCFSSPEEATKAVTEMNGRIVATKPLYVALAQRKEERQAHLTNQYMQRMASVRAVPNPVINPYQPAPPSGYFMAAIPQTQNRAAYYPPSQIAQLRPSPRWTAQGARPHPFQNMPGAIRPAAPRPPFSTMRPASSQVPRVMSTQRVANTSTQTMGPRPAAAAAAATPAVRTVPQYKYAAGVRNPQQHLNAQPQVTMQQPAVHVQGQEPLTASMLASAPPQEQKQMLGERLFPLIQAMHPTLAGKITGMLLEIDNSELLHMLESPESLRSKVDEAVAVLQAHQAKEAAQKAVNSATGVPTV
Genome polyprotein, sequence (P29990 2492-3391 limits assumed): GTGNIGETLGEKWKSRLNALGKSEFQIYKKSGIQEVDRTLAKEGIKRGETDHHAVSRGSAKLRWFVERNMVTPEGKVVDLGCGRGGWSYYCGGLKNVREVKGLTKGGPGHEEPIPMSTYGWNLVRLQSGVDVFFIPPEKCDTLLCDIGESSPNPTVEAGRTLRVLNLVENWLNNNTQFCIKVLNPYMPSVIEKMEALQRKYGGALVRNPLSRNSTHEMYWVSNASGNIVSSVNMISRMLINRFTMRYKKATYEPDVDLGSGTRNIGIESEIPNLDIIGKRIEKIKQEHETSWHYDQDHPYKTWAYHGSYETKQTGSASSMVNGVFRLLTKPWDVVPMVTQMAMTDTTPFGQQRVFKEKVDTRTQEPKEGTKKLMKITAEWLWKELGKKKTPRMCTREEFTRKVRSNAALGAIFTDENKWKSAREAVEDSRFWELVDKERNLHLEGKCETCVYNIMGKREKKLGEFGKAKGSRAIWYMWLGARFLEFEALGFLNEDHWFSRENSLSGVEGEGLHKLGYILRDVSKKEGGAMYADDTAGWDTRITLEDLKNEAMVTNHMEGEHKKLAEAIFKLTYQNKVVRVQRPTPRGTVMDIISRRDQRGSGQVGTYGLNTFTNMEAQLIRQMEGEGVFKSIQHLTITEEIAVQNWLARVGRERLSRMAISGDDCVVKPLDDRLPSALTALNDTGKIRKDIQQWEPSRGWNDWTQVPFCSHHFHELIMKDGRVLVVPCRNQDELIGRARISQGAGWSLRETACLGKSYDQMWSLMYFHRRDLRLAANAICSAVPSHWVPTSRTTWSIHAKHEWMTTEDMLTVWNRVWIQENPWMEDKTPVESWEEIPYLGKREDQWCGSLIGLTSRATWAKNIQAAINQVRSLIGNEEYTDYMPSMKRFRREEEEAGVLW
FAD-linked sulfhydryl oxidase ALR, sequence (P55789 whole entry): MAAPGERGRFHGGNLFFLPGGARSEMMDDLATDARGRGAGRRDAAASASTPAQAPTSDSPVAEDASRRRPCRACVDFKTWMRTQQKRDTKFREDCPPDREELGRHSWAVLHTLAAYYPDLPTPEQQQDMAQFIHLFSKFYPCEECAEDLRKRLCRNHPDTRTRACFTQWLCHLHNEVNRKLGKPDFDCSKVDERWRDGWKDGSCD

`O=C(Cn1c(=O)c2sccc2n(Cc2cccc([N+](=O)[O-])c2)c1=O)NCCc1ccccc1`: the IC50 at Fatty acid synthase [1] is 11.1 µM (active); on Fatty acid synthase [2], 26.7 µM (inactive).
As to `O=C(O)CCN1C(=O)C(=C2CCCCCC2)SC1=S`, the IC50 in assay [3] and in assay [5] was > 66 µM (inactive) throughout. Also, the AC50 in assay [4] was 40.8 µM (active).
`CCc1c(O)nc(SCC(=O)N2CCc3cc(OC)c(OC)cc3[C@@H]2C)nc1O`: the IC50 in assay [3] and in assay [5] was > 66 µM (inactive) each time.
Consider `O=C(CCNC(=O)c1ccc([N+](=O)[O-])cc1)NCc1ccccc1`, for which the results for the IC50 at Fatty acid synthase [1] and on Fatty acid synthase [2] were 11.3 µM (active) and 10.4 µM (active), respectively.
For `COc1cc(/C=C2/C(=O)N(c3ccc(C)c(C)c3)N=C2C)cc([N+](=O)[O-])c1O`, the EC50 at Protein RecA was 8.54 µM (active). For the same molecule, in assay [6], the AC50 was 11.3 µM (active).
For the molecule `O=C(Cn1nnc(-c2cc(C(F)(F)F)cc(C(F)(F)F)c2)n1)NN=C(S)Nc1ccc(Cl)cc1`, the IC50 in [3] and in assay [5] was > 66 µM (inactive) each time.
`CCCCN=C(S)Nc1cc([N+](=O)[O-])ccc1C`: the IC50 at Fatty acid synthase [1] is 9.4 µM (active); on Fatty acid synthase [2], 14.1 µM (active).
Take `CS(=O)(=O)c1ccc2nc(NC3(C(F)(F)F)N=C4SCCN4C3=O)sc2c1` (configuration not stated): the IC50 in [3] and in assay [5] was > 66 µM (inactive) throughout.
For the molecule `COc1ccccc1N1CC(C(=O)Nc2cc(C(F)(F)F)ccc2N2CCCC2)CC1=O` (configuration not stated), the IC50 at Fatty acid synthase [1] was 6.81 µM (active); at Fatty acid synthase [2], 7.17 µM (active).
With `Cc1ccc(Sc2ncnc3onc(C)c23)cc1`, on Protein RecA, the EC50 was 6.8 µM (active). The values for the AC50 in [7] and in [6] were 9.91 µM (active) and 14.9 µM (active), respectively.
Take `CN(C)S(=O)(=O)c1ccc2c(c1)C(=O)c1cc(S(=O)(=O)N(C)C)ccc1CC2`: the IC50 is 0.176 µM (active) at Fatty acid synthase [1] and 0.166 µM (active) at Fatty acid synthase [2].
The like results for `CCC(C)(C)C1CCc2n[nH]c(C(=O)NCCCNC(=O)OC(C)(C)C)c2C1` (configuration not stated) were, in that order, 0.524 µM (active) and 24.3 µM (inactive).
In the case of `CCN1CCN(c2c(Cl)cccc2NC(=O)c2ccc3c(c2)OCCO3)CC1`, the EC50 on Protein RecA was > 380 µM (inactive). In assay [6], the AC50 was > 380 µM (inactive).
With `CC1=NN(c2ccccc2)C(=O)C1C(=S)SC1CC(=O)NC1=O` (configuration not stated), the IC50 in assay [3] and in [5] was > 66 µM (inactive) each time.
On to `COc1ccc(C(O)c2nccc3cc(OC)c(OC)cc23)cc1OC` (configuration not stated), for which the EC50 at Protein RecA was 10.7 µM (active). In addition, the concentration at half-maximal activity (AC50) in assay [6] was 3.56 µM (active).
For `Cc1[nH]n(C(N)=S)c(=O)c1C(c1ccccc1)C(C#N)C#N` (configuration not stated), in that order: 12.9 µM (active) and 16.2 µM (active).
For the molecule `Cc1[nH]n(-c2ccccc2)c(=O)c1C(c1ccc(O)c([N+](=O)[O-])c1)c1c(C)[nH]n(-c2ccccc2)c1=O`, the EC50 at Protein RecA was 1.01 µM (active). Further, the AC50 in assay [6] was 2.53 µM (active). In addition, the IC50 on Genome polyprotein is 28.7 µM (active).
Regarding `Cc1ccc(-n2[nH]c(C)c(/C=N/c3ccc4[nH]c(O)nc4c3)c2=O)cc1C`, the IC50 in assay [3] was 22 µM (inactive); in assay [5], 35.3 µM (inactive). For the same molecule, the AC50 at Cytochrome P450 1A2 was 12.6 µM (inconclusive).
On to `O=C(NCC1CCCCC1)c1cc([N+](=O)[O-])ccc1Cl`, for which the IC50 on Fatty acid synthase [1] is 13.8 µM (active); on Fatty acid synthase [2] it was 9.77 µM (active).

Values taken from ChEMBL document CHEMBL1201862, “PubChem BioAssay data set” (2004).
